# Source: US9849116B2 (KNOPP BIOSCIENCES LLC, priority 2008, dated 2017)
# Where two headings read alike, the source gives them in different places.
# Tests used:
# D2 dopamine receptor = conditions: read-out: D2 binding, IC50, cited from earlier work
# D1 dopamine receptor = D1 dopamine receptor (Homo sapiens, UniProt P21728)
# Method: (§1) These concentrations were tested in cell lines expressing select human cloned dopamine receptors (D2S, D3).
# D5 dopamine receptor = D5 dopamine receptor (Homo sapiens, UniProt P21918)
# D5 dopamine receptor, sequence (P21918 whole entry): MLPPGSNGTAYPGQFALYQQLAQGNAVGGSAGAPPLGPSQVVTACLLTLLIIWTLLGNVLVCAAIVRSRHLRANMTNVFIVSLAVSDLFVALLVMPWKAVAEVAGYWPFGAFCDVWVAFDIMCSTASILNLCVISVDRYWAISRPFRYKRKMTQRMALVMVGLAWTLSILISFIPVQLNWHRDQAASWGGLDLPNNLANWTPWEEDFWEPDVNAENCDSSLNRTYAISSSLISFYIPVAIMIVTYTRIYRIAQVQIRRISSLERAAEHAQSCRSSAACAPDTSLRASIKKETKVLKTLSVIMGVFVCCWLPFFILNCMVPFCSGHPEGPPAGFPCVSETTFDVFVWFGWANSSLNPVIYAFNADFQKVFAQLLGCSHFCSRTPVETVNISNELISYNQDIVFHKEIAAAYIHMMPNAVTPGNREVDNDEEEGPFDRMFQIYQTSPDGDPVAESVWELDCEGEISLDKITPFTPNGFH
# Method: as §1
# male beagle dogs = conditions: based on dog data
# rodents [1] = conditions: in vivo
# [2] = tested on: monkeys treated with MPTP; conditions: monkey, in vivo
# rodents [3] = conditions: single oral dose; cited from earlier work
# dogs = conditions: single oral dose; cited from earlier work
# monkeys = conditions: single oral dose; cited from earlier work
# human subjects = conditions: cited from earlier work
# [4] = tested on: monkeys treated with MPTP; conditions: cited from earlier work
# [5] = tested on: Parkinson's disease patients; conditions: treatment of Parkinson's disease; cited from earlier work
# [6] = tested on: restless legs syndrome patients; conditions: treatment of restless legs syndrome; cited from earlier work
# [7] = cited from earlier work
# [8] = Lit.* Schneider & Mierau 1987 J. Med. Chem. 30: 494-498
# [9] = Lit.** Wong & Shrikhande 2003 Society for Neuroscience Abstracts
# D1 dopamine receptor, sequence (P21728 whole entry): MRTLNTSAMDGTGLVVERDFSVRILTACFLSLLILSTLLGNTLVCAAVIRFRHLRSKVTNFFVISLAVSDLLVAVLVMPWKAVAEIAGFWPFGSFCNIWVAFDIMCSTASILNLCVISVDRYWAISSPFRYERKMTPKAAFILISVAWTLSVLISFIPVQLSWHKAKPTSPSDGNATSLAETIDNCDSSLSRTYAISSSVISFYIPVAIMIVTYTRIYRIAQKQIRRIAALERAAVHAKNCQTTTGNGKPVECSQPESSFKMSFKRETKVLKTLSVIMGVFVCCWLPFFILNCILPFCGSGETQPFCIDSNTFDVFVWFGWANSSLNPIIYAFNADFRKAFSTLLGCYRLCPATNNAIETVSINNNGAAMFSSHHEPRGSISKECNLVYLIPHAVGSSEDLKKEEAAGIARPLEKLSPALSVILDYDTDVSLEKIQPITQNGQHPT
SMILES,IC50 (D2 dopamine receptor; [8]) [µM],IC50 (D2 dopamine receptor; [9]) [µM],interaction with D1 dopamine receptor (D1 dopamine receptor),interaction with D5 dopamine receptor (D5 dopamine receptor),human equivalent dose of the NOAEL for a 70 kg individual (male beagle dogs) [mg],human equivalence dose of the MTD (male beagle dogs; 70 kg human subject) [mg],human dose equivalent to the lethal dose in rodents (rodents [1]) [mg/kg],"human dose equivalent to the lethal dose in rodents, 70 kg individual (rodents [1]) [mg]",human dose equivalent to the lowest effective oral dose in monkeys [2] [mg/kg],"human dose equivalent to the lowest effective oral dose in monkeys, 70 kg individual [2] [mg]",doses at which deaths occurred (and above) (rodents [3]) [mg/kg],dose at which vomiting occurred (and above) (dogs) [mg/kg],dose at which major excitation was displayed (monkeys) [mg/kg],dose shown to cause somnolence (human subjects; human subjects) [mg],starting daily dose not tolerated (human subjects; naïve patient),lowest effective oral dose [4] [mg/kg],lowest effective oral dose with a significant effect versus placebo [5] [mg/day],lowest effective dose with a significant effect versus placebo [6] [mg/day],MRTD ([7]; FDA MRTD database) [mg/kg/day],MRTD ([7]; for a 70 lb. person) [mg/day]
"CCCN[C@H]1CCc2nc(N)sc2C1 [(S)-pramipexole, (6S)-4,5,6,7-tetrahydro-N6-propyl-2,6-benzothiazole-diamine]",–,–,no significant interaction,no significant interaction,0.05,0.30,[…],500 to 850,[…],[…],[…],[…],3.5,[…],[…],0.053,[…],[…],[…],[…]
